Measured values from patent US10988477B2 (Merck Patent GmbH, priority 2018, dated 2021).

These compounds were tested against GCN2 kinase (Homo sapiens, UniProt Q9P2K8) (assay: GCN2 enzyme inhibition assay (Transcreener ADP2 fluorescence polarization)). Conditions: Enzyme activity for compounds of Formula IV; Ki(app), 280 μM ATP, 25° C.
Chain of GCN2 kinase (Q9P2K8 whole entry): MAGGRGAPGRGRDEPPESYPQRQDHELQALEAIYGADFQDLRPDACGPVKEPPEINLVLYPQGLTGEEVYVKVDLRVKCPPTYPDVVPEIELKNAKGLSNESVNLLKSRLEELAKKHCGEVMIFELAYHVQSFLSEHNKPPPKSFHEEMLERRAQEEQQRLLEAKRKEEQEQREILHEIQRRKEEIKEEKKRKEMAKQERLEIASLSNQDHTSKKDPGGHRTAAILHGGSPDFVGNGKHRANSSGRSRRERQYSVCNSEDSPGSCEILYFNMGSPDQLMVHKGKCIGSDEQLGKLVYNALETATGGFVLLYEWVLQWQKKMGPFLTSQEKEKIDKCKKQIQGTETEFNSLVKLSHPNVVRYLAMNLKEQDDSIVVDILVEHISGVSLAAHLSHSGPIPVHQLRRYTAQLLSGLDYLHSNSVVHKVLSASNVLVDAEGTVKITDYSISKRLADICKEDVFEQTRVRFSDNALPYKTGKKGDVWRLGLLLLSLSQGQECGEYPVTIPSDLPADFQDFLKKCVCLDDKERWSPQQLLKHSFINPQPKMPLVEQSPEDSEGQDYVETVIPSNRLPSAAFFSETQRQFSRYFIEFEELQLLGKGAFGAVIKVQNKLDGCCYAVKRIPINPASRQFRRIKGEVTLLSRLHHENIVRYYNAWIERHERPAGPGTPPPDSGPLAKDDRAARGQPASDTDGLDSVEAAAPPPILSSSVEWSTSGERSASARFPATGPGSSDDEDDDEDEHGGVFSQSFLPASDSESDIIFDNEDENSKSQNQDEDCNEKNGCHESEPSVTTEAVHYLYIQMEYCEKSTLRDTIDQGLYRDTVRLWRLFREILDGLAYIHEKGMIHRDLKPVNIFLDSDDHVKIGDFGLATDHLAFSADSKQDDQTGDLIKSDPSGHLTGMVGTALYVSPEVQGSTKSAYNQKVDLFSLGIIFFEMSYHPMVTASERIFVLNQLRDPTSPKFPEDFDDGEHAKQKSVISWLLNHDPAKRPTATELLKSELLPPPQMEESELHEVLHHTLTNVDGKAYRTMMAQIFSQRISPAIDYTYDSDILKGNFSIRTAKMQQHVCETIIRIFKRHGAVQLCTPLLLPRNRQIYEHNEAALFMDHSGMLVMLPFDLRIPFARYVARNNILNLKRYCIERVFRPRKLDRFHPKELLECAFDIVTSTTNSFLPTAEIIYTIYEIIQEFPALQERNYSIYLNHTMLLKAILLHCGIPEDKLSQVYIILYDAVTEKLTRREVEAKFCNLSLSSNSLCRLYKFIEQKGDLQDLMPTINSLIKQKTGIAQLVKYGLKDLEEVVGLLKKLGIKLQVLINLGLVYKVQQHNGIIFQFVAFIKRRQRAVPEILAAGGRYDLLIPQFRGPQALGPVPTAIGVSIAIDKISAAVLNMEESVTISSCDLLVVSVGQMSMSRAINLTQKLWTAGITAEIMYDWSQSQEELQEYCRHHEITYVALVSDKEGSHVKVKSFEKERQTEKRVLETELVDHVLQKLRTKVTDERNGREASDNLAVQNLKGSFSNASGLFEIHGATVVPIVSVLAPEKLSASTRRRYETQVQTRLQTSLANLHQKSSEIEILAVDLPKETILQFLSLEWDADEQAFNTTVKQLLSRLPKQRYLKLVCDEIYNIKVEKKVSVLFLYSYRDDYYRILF
Format: biochemical
Summary of the method: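 Inhibition of 4 nM GCN2 was measured with compound up to 8 μM final, ATP 280 μM and (RS)7 peptide 200 μM over a 1 h, 25 °C reaction. ADP FP readout; IC50 and Ki(app) calculated from percent inhibition.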
With `Fc1n[nH]cc1C1=CCCN(c2ccnc(-c3cnc4cnc(C(F)(F)F)cn34)n2)C1` [IV-430, 3-(4-(5-(3-Fluoro-1H-pyrazol-4-yl)-3,6-dihydropyridin-1(2H)-yl)pyrimidin-2-yl)-6-(trifluoromethyl)imidazo[1,2-a]pyrazine] the Ki was < 10 nM.
With `Cn1cc(NC(=O)[C@@H]2CCCN(c3ccnc(-c4cnc5cnc(C(F)(F)F)cn45)n3)C2)cn1` [IV-728] the Ki was > 1000 nM.
For `CC1CN(c2nccc(-c3cnc4cnc(Cl)cn34)n2)C(C)C(c2cn[nH]c2)N1` (stereo not shown) [IV-382, 6-Chloro-3-(2-(2,5-dimethyl-3-(1H-pyrazol-4-yl)piperazin-1-yl)pyrimidin-4-yl)imidazo[1,2-a]pyrazine], the Ki was 10 to 100 nM.
`FC(F)(F)c1cn2c(-c3nccc(N4CCC(N5CCOCC5)C4)n3)cnc2cn1` (stereo not shown) [IV-553, 4-(1-(2-(6-(Trifluoromethyl)imidazo[1,2-a]pyrazin-3-yl)pyrimidin-4-yl)pyrrolidin-3-yl)morpholine] was tested, and the Ki was 100 to 1000 nM.
For `O=C1CC(C2CCCN(c3ccnc(-c4cnc5cnc(C(F)(F)F)cn45)n3)C2)CN1` (stereo not shown) [IV-663, 4-(1-(2-(6-(Trifluoromethyl)imidazo[1,2-a]pyrazin-3-yl)pyrimidin-4-yl)piperidin-3-yl)pyrrolidin-2-one], the Ki was 100 to 1000 nM.
With `FC(F)(F)c1cn2c(-c3ccnc(N4CCOC(c5cn[nH]c5)C4)n3)cnc2cn1` (single isomer, unassigned) [IV-185, 2-(1H-Pyrazol-4-yl)-4-(4-(6-(trifluoromethyl)imidazo[1,2-a]pyrazin-3-yl)pyrimidin-2-yl)morpholine] the Ki was 10 to 100 nM.
Compound `OCCN1CCN(c2ccnc(-c3cnc4cnc(C(F)(F)F)cn34)n2)CC1` [IV-617, 2-(4-(2-(6-(Trifluoromethyl)imidazo[1,2-a]pyrazin-3-yl)pyrimidin-4-yl)piperazin-1-yl)ethan-1-ol] has a Ki of 100 to 1000 nM.
For `COCC1CN(c2ccnc(-c3cnc4cnc(C(F)(F)F)cn34)n2)CC(C)O1` (stereo not shown) [IV-587, 2-(Methoxymethyl)-6-methyl-4-(2-(6-(trifluoromethyl)imidazo[1,2-a]pyrazin-3-yl)pyrimidin-4-yl)morpholine], the Ki was 100 to 1000 nM.
With `[O-][S+]1CCN(c2ccnc(-c3cnc4cnc(C(F)F)cn34)n2)CC1` [IV-80, 4-(2-(6-(Difluoromethyl)imidazo[1,2-a]pyrazin-3-yl)pyrimidin-4-yl)thiomorpholine 1-oxide] the Ki was 100 to 1000 nM.
For `CC1C(c2cn[nH]c2)OCCN1c1ccnc(-c2cnc3cnc(C(F)(F)F)cn23)n1` (stereo not shown) [IV-218, 3-Methyl-2-(1H-pyrazol-4-yl)-4-(2-(6-(trifluoromethyl)imidazo[1,2-a]pyrazin-3-yl)pyrimidin-4-yl)morpholine], the Ki was 10 to 100 nM.
With `Cc1[nH]ncc1C1NC(C)CN(c2ccnc(-c3cnc4cnc(Cl)cn34)n2)C1C` (stereo not shown) [IV-278, 6-Chloro-3-(4-(2,5-dimethyl-3-(5-methyl-1H-pyrazol-4-yl)piperazin-1-yl)pyrimidin-2-yl)imidazo[1,2-a]pyrazine] the Ki was < 10 nM.
In the case of `OCCCC1CCN(c2ccnc(-c3cnc4cnc(C(F)(F)F)cn34)n2)C1` (stereo not shown) [IV-616, 3-(1-(2-(6-(Trifluoromethyl)imidazo[1,2-a]pyrazin-3-yl)pyrimidin-4-yl)pyrrolidin-3-yl)propan-1-ol], the Ki is reported as 10 to 100 nM.
Compound `CC1CN(c2ccnc(-c3cnc4cnc(C(F)(F)F)cn34)n2)C(C)(C)C1` (stereo not shown) [IV-610, 6-(Trifluoromethyl)-3-(4-(2,2,4-trimethylpyrrolidin-1-yl)pyrimidin-2-yl)imidazo[1,2-a]pyrazine] has a Ki of 100 to 1000 nM.
`CNS(=O)(=O)C1CCN(c2ccnc(-c3cnc4cnc(C(N)=O)cn34)n2)CC1` [IV-252, 3-(4-(4-(N-Methylsulfamoyl)piperidin-1-yl)pyrimidin-2-yl)imidazo[1,2-a]pyrazine-6-carboxamide] gave a Ki of 100 to 1000 nM.
Compound `FC(F)c1cn2c(-c3nccc(C4=CCCC4)n3)cnc2cn1` [IV-163, 3-(4-(Cyclopent-1-en-1-yl)pyrimidin-2-yl)-6-(difluoromethyl)imidazo[1,2-a]pyrazine] has a Ki of 100 to 1000 nM.
Compound `CC1CC(CS(C)(=N)=O)C(C)N(c2ccnc(-c3cnc4cnc(C(F)F)cn34)n2)C1` (single isomer, unassigned) [IV-367, ((1-(2-(6-(Difluoromethyl)imidazo[1,2-a]pyrazin-3-yl)pyrimidin-4-yl)-2,5-dimethylpiperidin-3-yl)methyl)(imino)(methyl)-λ^6-sulfanone] has a Ki of 100 to 1000 nM.
Compound `CS(=N)(=O)c1cccc(-c2ccnc(-c3cnc4cnc(C(F)F)cn34)n2)c1` (stereo not shown) [IV-79, (3-(2-(6-(difluoromethyl)imidazo[1,2-a]pyrazin-3-yl)pyrimidin-4-yl)phenyl)(imino)(methyl)-λ^6-sulfanone] has a Ki of 100 to 1000 nM.
For `CC(=O)Nc1ccc(-c2cn3c(-c4nccc(N5CCN(C(C)=O)CC5)n4)cnc3cn2)cc1` [IV-298, N-(4-(3-(4-(4-Acetylpiperazin-1-yl)pyrimidin-2-yl)imidazo[1,2-a]pyrazin-6-yl)phenyl)acetamide], the Ki was 100 to 1000 nM.
For `FC(F)(F)c1cn2c(-c3nccc(N4CCO[C@@H](c5ccccn5)C4)n3)cnc2cn1` [IV-722], the Ki was 100 to 1000 nM.
Compound `C[C@@H]1[C@H](c2cn[nH]c2)N(c2ccnc(-c3cnc4cnc(Br)cn34)n2)CCN1C` (relative stereo) [IV-393, Cis-6-Bromo-3-(4-(3,4-dimethyl-2-(1H-pyrazol-4-yl)piperazin-1-yl)pyrimidin-2-yl)imidazo[1,2-a]pyrazine] has a Ki of 100 to 1000 nM.
`O=C1CCCC2CN(c3ccnc(-c4cnc5cnc(Cl)cn45)n3)CCN12` (stereo not shown) [IV-286, 2-(2-(6-Chloroimidazo[1,2-a]pyrazin-3-yl)pyrimidin-4-yl)octahydro-6H-pyrido[1,2-c]pyrazin-6-one] showed a Ki of 10 to 100 nM.
Compound `NC(=O)NCC1CCCN(c2ccnc(-c3cnc4cnc(C(F)(F)F)cn34)n2)C1` (stereo not shown) [IV-527, 1-((1-(2-(6-(Trifluoromethyl)imidazo[1,2-a]pyrazin-3-yl)pyrimidin-4-yl)piperidin-3-yl)methyl)urea] has a Ki of 100 to 1000 nM.
With `FC(F)(F)c1cn2c(-c3nccc(N4CCC(c5cc[nH]n5)C4)n3)cnc2cn1` (stereo not shown) [IV-457, 3-(4-(3-(1H-Pyrazol-3-yl)pyrrolidin-1-yl)pyrimidin-2-yl)-6-(trifluoromethyl)imidazo[1,2-a]pyrazine] the Ki was 100 to 1000 nM.
`O=C1CN(c2ccnc(-c3cnc4cnc(C(F)(F)F)cn34)n2)CC2CCCCN12` (stereo not shown) [IV-571, 2-(2-(6-(Trifluoromethyl)imidazo[1,2-a]pyrazin-3-yl)pyrimidin-4-yl)octahydro-4H-pyrido[1,2-a]pyrazin-4-one] gave a Ki of 100 to 1000 nM.

Same assay, conditions: compounds of Formula II; 280 μM ATP, 4 nM GCN2 kinase
In the case of `CCS(C)(=O)=NC1CC(C)CN(c2cc(-c3cnc4ccc(C(F)F)nn34)ncn2)C1` (single isomer, unassigned) [II-642, ((1-(6-(6-(Difluoromethyl)imidazo[1,2-b]pyridazin-3-yl)pyrimidin-4-yl)-5-methylpiperidin-3-yl)imino)(ethyl)(methyl)-λ^6-sulfanone], the Ki is reported as < 10 nM.
`CC(C)(O)C1CCCN(c2cc(-c3cnc4ccc(C(F)F)nn34)ncn2)C1` (single isomer, unassigned) [II-613, 2-(1-(6-(6-(Difluoromethyl)imidazo[1,2-b]pyridazin-3-yl)pyrimidin-4-yl)piperidin-3-yl)propan-2-ol] was tested, and the Ki was 10 to 1000 nM.
For `CC(=O)N1CCN(c2cc(-c3cnc4ccc(C(F)F)nn34)ncn2)C(C)C1CNS(C)(=O)=O` (stereo not shown) [II-515, N-((1-Acetyl-4-(6-(6-(difluoromethyl)imidazo[1,2-b]pyridazin-3-yl)pyrimidin-4-yl)-3-methylpiperazin-2-yl)methyl)methanesulfonamide], the Ki was < 10 nM.
In the case of `CC1CC(CNS(C)(=O)=O)CN(c2cc(-c3cnc4ccc(C(F)F)nn34)ncn2)C1C` (stereo not shown) [II-592, N-((1-(6-(6-(Difluoromethyl)imidazo[1,2-b]pyridazin-3-yl)pyrimidin-4-yl)-5,6-dimethylpiperidin-3-yl)methyl)methanesulfonamide], the Ki is reported as < 10 nM.
`CC1(C)CN(c2cc(-c3cnc4ccc(C(F)F)nn34)ncn2)CC(CNS(C)(=O)=O)N1` (stereo not shown) [II-570, N-((4-(6-(6-(Difluoromethyl)imidazo[1,2-b]pyridazin-3-yl)pyrimidin-4-yl)-6,6-dimethylpiperazin-2-yl)methyl)methanesulfonamide] was tested, and the Ki was 10 to 1000 nM.
`CCS(C)(=O)=NC1CC(C)CN(c2cc(-c3cnc4ccc(C(F)F)nn34)ncn2)C1` (single isomer, unassigned) [II-641, ((1-(6-(6-(Difluoromethyl)imidazo[1,2-b]pyridazin-3-yl)pyrimidin-4-yl)-5-methylpiperidin-3-yl)imino)(ethyl)(methyl)-λ^6-sulfanone] gave a Ki of 10 to 1000 nM.
For `CC1CC(N=S(C)(C)=O)CN(c2cc(-c3cnc4ccc(C#N)nn34)ncn2)C1` (stereo not shown) [II-702, 3-(6-(3-((Dimethyl(oxo)-λ^6-sulfanylidene)amino)-5-methylpiperidin-1-yl)pyrimidin-4-yl)imidazo[1,2-b]pyridazine-6-carbonitrile], the Ki was 10 to 1000 nM.
`COCCOC1CC(CNS(C)(=O)=O)CN(c2cc(-c3cnc4ccc(C(F)F)nn34)ncn2)C1` (stereo not shown) [II-550, N-((1-(6-(6-(Difluoromethyl)imidazo[1,2-b]pyridazin-3-yl)pyrimidin-4-yl)-5-(2-methoxyethoxy)piperidin-3-yl)methyl)methanesulfonamide] was tested, and the Ki was < 10 nM.

Same assay, conditions: compounds of Formula III; 280 μM ATP, 4 nM GCN2 kinase
In the case of `CC1CC(N=S(C)(C)=O)CN(c2cc(-c3cnn4ccc(C(F)F)nc34)ncn2)C1` (stereo not shown) [III-14, [1-[6-[5-(Difluoromethyl)pyrazolo[1,5-a]pyrimidin-3-yl]pyrimidin-4-yl]-5-methyl-3-piperidyl]imino-dimethyl-oxo-6-sulfane], the Ki is reported as 10 to 1000 nM.

Same assay, conditions: compounds of Formula IV; 280 μM ATP, 4 nM GCN2 kinase
In the case of `C[C@H]1[C@@H](c2cn[nH]c2)N(C(=O)c2cnoc2)[C@@H](C)CN1c1ccnc(-c2cnc3cnc(C(F)(F)F)cn23)n1` [IV-779, ((2R,3S,6S)-3,6-dimethyl-2-(1H-pyrazol-4-yl)-4-(2-(6-(trifluoromethyl)imidazo[1,2-a]pyrazin-3-yl)pyrimidin-4-yl)piperazin-1-yl)(isoxazol-4-yl)methanone], the IC50 is reported as 10 to 1000 nM.
